Measured values taken from US20240174662A1, “SMALL MOLECULE INHIBITORS OF SALT INDUCIBLE KINASES” (Janssen Biotech, Inc., priority 2021, published 2024).

Biological target: SIK2 (Homo sapiens (Human), UniProt Q9H0K1)
Test: SIK2 Enzymatic Assay Version 2 (High ATP)
Assay type: biochemical
Conditions: 3 mM ATP and 200 μM HDAC5tide final, ADP-Glo Max luminescence
In short: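 Run at room temperature; SIK2 enzyme at 6 nM (2× final) preincubated with compound 30 min before reaction. ADP formation detected by ADP-Glo Max (2 h reagent, 1 h detection) with luminescence read-out.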

Sequence of SIK2 (Q9H0K1 whole entry, species assumed): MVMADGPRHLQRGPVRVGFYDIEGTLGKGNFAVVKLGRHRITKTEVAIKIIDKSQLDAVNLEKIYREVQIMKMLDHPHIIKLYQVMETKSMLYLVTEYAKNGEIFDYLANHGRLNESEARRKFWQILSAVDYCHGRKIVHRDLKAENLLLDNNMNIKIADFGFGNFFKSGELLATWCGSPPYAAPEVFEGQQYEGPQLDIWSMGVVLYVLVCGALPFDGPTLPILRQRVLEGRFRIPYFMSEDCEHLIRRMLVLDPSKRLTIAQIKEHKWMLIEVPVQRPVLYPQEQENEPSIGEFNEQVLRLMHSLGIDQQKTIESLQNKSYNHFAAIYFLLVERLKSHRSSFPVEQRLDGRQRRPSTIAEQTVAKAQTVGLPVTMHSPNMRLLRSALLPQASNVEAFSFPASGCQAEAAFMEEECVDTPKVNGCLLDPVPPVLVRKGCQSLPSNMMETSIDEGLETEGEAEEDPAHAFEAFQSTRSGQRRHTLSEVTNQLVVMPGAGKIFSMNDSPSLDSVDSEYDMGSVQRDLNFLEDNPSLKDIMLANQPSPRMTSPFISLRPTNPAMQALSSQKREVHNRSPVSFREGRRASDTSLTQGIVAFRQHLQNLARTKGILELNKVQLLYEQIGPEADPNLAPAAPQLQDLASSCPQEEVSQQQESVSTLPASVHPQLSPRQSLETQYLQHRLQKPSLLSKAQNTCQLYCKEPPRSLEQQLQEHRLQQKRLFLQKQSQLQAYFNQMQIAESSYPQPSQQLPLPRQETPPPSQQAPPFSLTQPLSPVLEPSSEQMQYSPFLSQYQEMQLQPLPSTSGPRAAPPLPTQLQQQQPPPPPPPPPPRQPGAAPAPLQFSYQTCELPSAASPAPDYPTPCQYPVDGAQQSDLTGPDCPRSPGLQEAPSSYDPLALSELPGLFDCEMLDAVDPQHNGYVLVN

| SMILES | IC50 [nM] |
| --- | --- |
| C[C@H]1[C@H](OCc2cnn(C)c2-c2ccn3nc(NC(=O)C4CC4)cc3c2)CN1C [Example 190, N-[5-[4-[[(2S,3R)-1,2-dimethylazetidin-3-yl]oxymethyl]-2-methyl-pyrazol-3-yl]pyrazolo[1,5-a]pyridin-2-yl]cyclopropanecarboxamide] | 26.5 |
| Cc1cc(Nc2cc3cc(-c4c(OC[C@]5(C)CCOC5)cnn4C)ccn3n2)nc(C)n1 (single isomer, unassigned) [Example 440, (*S)—N-(2,6-dimethylpyrimidin-4-yl)-5-[2-methyl-4-[(3-methyltetrahydrofuran-3-yl)methoxy]pyrazol-3-yl]pyrazolo[1,5-a]pyridin-2-amine] | 70.1 |
| Cc1cnc(Nc2cc3cc(-c4c(CO[C@@H]5CN(C)C[C@H]5C)cnn4C)ccn3n2)cn1 (stereo in doubt) [Example 377, CIS—*R, *R-5-[4-[(1,4-dimethylpyrrolidin-3-yl)oxymethyl]-2-methyl-pyrazol-3-yl]-N-(5-methylpyrazin-2-yl)pyrazolo[1,5-a]pyridin-2-amine] | 14.8 |
| CN1C[C@@H](c2ccccc2)C[C@@H]1COc1cnn(C)c1-c1ccn2nc(NC(=O)C3CC3)cc2c1 [Example 258, N-[5-[2-methyl-4-[[(2R,4R)-1-methyl-4-phenyl-pyrrolidin-2-yl]methoxy]pyrazol-3-yl]pyrazolo[1,5-a]pyridin-2-yl]cyclopropanecarboxamide] | 7.3 |
| COC1(COc2noc(C)c2-c2ccn3nc(NC(=O)C4CC4)cc3c2)CN(C)C1 [Example 29, N-[5-[3-[(3-methoxy-1-methyl-azetidin-3-yl)methoxy]-5-methyl-isoxazol-4-yl]pyrazolo[1,5-a]pyridin-2-yl]cyclopropanecarboxamide] | 360 |
| Cc1cc(Nc2cc3cc(-c4c(OC[C@H]5CCN5)cnn4C)ccn3n2)nc(C)n1 [Example 42, 5-[4-[[(2R)-azetidin-2-yl]methoxy]-2-methyl-pyrazol-3-yl]-N-(2,6-dimethylpyrimidin-4-yl)pyrazolo[1,5-a]pyridin-2-amine] | 14.6 |
| Cn1ncc(O[C@H]2CC[C@@H](O)CC2)c1-c1ccn2nc(NC(=O)C3CC3)cc2c1 [Example 404, N-[5-[4-(4-hydroxycyclohexoxy)-2-methyl-pyrazol-3-yl]pyrazolo[1,5-a]pyridin-2-yl]cyclopropanecarboxamide] | 120 |
| C[C@H]1CN(C)C[C@H]1OCc1cnn(C)c1-c1ccn2nc(NC(=O)C3CC3)cc2c1 (single isomer, unassigned) [Example 195, (3*S,4*S)—N-[5-[4-[(1,4-dimethylpyrrolidin-3-yl)oxymethyl]-2-methyl-pyrazol-3-yl]pyrazolo[1,5-a]pyridin-2-yl]cyclopropanecarboxamide] | 3.5 |
| CCN1CC[C@@H]1COc1cnn(C)c1-c1ccn2nc(Nc3cc(C)nc(C(F)F)n3)cc2c1 [Example 103, N-[2-(difluoromethyl)-6-methyl-pyrimidin-4-yl]-5-[4-[[(2R)-1-ethylazetidin-2-yl]methoxy]-2-methyl-pyrazol-3-yl]pyrazolo[1,5-a]pyridin-2-amine] | < 0.847 |
| Cc1onc(OC[C@H]2CCCCN2C)c1-c1ccn2nc(NC(=O)C3CC3)cc2c1 [Example 502, N-[5-[5-methyl-3-[[(2R)-1-methyl-2-piperidyl]methoxy]isoxazol-4-yl]pyrazolo[1,5-a]pyridin-2-yl]cyclopropanecarboxamide] | 1580 |
| Cc1onc(OC[C@H]2CCN2C)c1-c1ccc2nc(NC(=O)C3CC3)cn2c1 [Example 329, N-[6-[5-methyl-3-[[(2R)-1-methylazetidin-2-yl]methoxy]isoxazol-4-yl]imidazo[1,2-a]pyridin-2-yl]cyclopropanecarboxamide] | 35 |
| Cc1cc(Nc2cc3cc(-c4c(OC[C@@H](O)C5(C)CC5)cnn4C)ccn3n2)nc(C)n1 [Example 301, (1S)-2-[5-[2-[(2,6-dimethylpyrimidin-4-yl)amino]pyrazolo[1,5-a]pyridin-5-yl]-1-methyl-pyrazol-4-yl]oxy-1-(1-methylcyclopropyl)ethanol] | 15.2 |
| CC(C)N1CC[C@@H]1COc1cnn(C)c1-c1ccn2nc(NC(=O)C3CC3)cc2c1 [Example 53, N-[5-[4-[[(2R)-1-isopropylazetidin-2-yl]methoxy]-2-methyl-pyrazol-3-yl]pyrazolo[1,5-a]pyridin-2-yl]cyclopropanecarboxamide] | 68.3 |
| CCN1CC[C@@H]1COc1cnn(C(F)F)c1-c1ccn2nc(Nc3cc(C)c(OC)nn3)cc2c1 [Example 483, 5-[2-(difluoromethyl)-4-[[(2R)-1-ethylazetidin-2-yl]methoxy]pyrazol-3-yl]-N-(6-methoxy-5-methyl-pyridazin-3-yl)pyrazolo[1,5-a]pyridin-2-amine] | 0.9 |
| CN1CC[C@H](Oc2cnn(C)c2-c2ccn3nc(Nc4ccc5c(n4)CCOC5)cc3c2)C1 [Example 280, N-[5-[2-methyl-4-[(3S)-1-methylpyrrolidin-3-yl]oxy-pyrazol-3-yl]pyrazolo[1,5-a]pyridin-2-yl]-7,8-dihydro-5H-pyrano[4,3-b]pyridin-2-amine] | 35.8 |
| Cn1ncc(O[C@@H]2CNC[C@@H]2F)c1-c1ccn2nc(NC(=O)C3CC3)cc2c1 [Example 242, N-[5-[4-[(3R,4S)-4-fluoropyrrolidin-3-yl]oxy-2-methyl-pyrazol-3-yl]pyrazolo[1,5-a]pyridin-2-yl]cyclopropanecarboxamide] | 8.3 |
| Cc1cc(Nc2cc3cc(-c4c(OC[C@H]5CCCN5C)cnn4C)ccn3n2)nc(C)n1 [Example 282, N-(2,6-dimethylpyrimidin-4-yl)-5-[2-methyl-4-[[(2R)-1-methylpyrrolidin-2-yl]methoxy]pyrazol-3-yl]pyrazolo[1,5-a]pyridin-2-amine] | 11.3 |
| CN1CC[C@@H]1COc1cnn(C)c1-c1ccn2nc(Nc3ccc(C(=O)NCCC#N)cn3)cc2c1 [Example 135, N-(2-cyanoethyl)-6-[[5-[2-methyl-4-[[(2R)-1-methylazetidin-2-yl]methoxy]pyrazol-3-yl]pyrazolo[1,5-a]pyridin-2-yl]amino]pyridine-3-carboxamide] | 5.8 |
| CCN1CC[C@@H]1COc1cnn(C(F)F)c1-c1ccn2nc(Nc3cncc(C)n3)cc2c1 [Example 482, 5-[2-(difluoromethyl)-4-[[(2R)-1-ethylazetidin-2-yl]methoxy]pyrazol-3-yl]-N-(6-methylpyrazin-2-yl)pyrazolo[1,5-a]pyridin-2-amine] | 1.8 |
| Cc1cc(Nc2cc3cc(-c4c(O[C@@H]5CNC[C@@H]5F)noc4C)ccn3n2)nnc1C [Example 93, N-(5,6-dimethylpyridazin-3-yl)-5-[3-[(3R,4S)-4-fluoropyrrolidin-3-yl]oxy-5-methyl-isoxazol-4-yl]pyrazolo[1,5-a]pyridin-2-amine] | 4.7 |
| Cc1cc(Nc2cc3cc(-c4c(O[C@H]5CCN[C@@H]5C)cnn4C)ccn3n2)nc(C)n1 [Example 442, N-(2,6-dimethylpyrimidin-4-yl)-5-[2-methyl-4-[(2R,3S)-2-methylpyrrolidin-3-yl]oxy-pyrazol-3-yl]pyrazolo[1,5-a]pyridin-2-amine] | 106 |
| CN1CCC[C@H]1COc1cnn(C)c1-c1ccn2nc(NC(=O)C3CC3)cc2c1 [Example 419, N-[5-[2-methyl-4-[[(2S)-1-methylpyrrolidin-2-yl]methoxy]pyrazol-3-yl]pyrazolo[1,5-a]pyridin-2-yl]cyclopropanecarboxamide] | 136 |
| C[C@@H]1CN(C)C[C@@H]1OCc1cnn(C)c1-c1ccn2nc(NC(=O)C3CC3)cc2c1 (single isomer, unassigned) [Example 197, (3*R, 4*R)—N-[5-[4-[(1,4-dimethylpyrrolidin-3-yl)oxymethyl]-2-methyl-pyrazol-3-yl]pyrazolo[1,5-a]pyridin-2-yl]cyclopropanecarboxamide] | 28.1 |
| Cc1cc(C(=O)NCC(C)(C)O)cc(Nc2cc3cc(-c4c(OC[C@H]5CCN5C)cnn4C)ccn3n2)n1 [Example 111, N-(2-hydroxy-2-methyl-propyl)-2-methyl-6-[[5-[2-methyl-4-[[(2R)-1-methylazetidin-2-yl]methoxy]pyrazol-3-yl]pyrazolo[1,5-a]pyridin-2-yl]amino]pyridine-4-carboxamide] | 1.3 |
| Cc1cnc(Nc2cc3cc(-c4c(CO[C@H]5CN(C)C[C@@H]5C)cnn4C)ccn3n2)cn1 (stereo in doubt) [Example 469, (rac-trans)-5-[4-[(1,4-dimethylpyrrolidin-3-yl)oxymethyl]-2-methyl-pyrazol-3-yl]-N-(5-methylpyrazin-2-yl)pyrazolo[1,5-a]pyridin-2-amine] | 27.3 |
| CCN1CC[C@H]1COc1cnn(C)c1-c1ccn2nc(Nc3cc(C)nc(C(F)(F)F)n3)cc2c1 [Example 168, 5-[4-[[(2S)-1-ethylazetidin-2-yl]methoxy]-2-methyl-pyrazol-3-yl]-N-[6-methyl-2-(trifluoromethyl)pyrimidin-4-yl]pyrazolo[1,5-a]pyridin-2-amine] | 23 |
| Cc1onc(OC[C@@H](N)C2CC2)c1-c1ccn2nc(NC(=O)C3CC3)cc2c1 [Example 328, N-[5-[3-[(2S)-2-amino-2-cyclopropyl-ethoxy]-5-methyl-isoxazol-4-yl]pyrazolo[1,5-a]pyridin-2-yl]cyclopropanecarboxamide] | 61.8 |
| Cn1ncc(OC[C@H]2CCN2c2ccccn2)c1-c1ccn2nc(NC(=O)C3CC3)cc2c1 [Example 436, N-[5-[2-methyl-4-[[(2R)-1-(2-pyridyl)azetidin-2-yl]methoxy]pyrazol-3-yl]pyrazolo[1,5-a]pyridin-2-yl]cyclopropanecarboxamide] | 79 |
| Cc1nccc(Nc2cc3cc(-c4c(OC[C@H]5CCCN5C)cnn4C)ccn3n2)n1 [Example 286, 5-[2-methyl-4-[[(2R)-1-methylpyrrolidin-2-yl]methoxy]pyrazol-3-yl]-N-(2-methylpyrimidin-4-yl)pyrazolo[1,5-a]pyridin-2-amine] | 23.5 |
| C[C@H]1C[C@H](Oc2cnn(C)c2-c2ccn3nc(NC(=O)C4CC4)cc3c2)CN1 [Example 338, N-[5-[2-methyl-4-[(3S,5S)-5-methylpyrrolidin-3-yl]oxy-pyrazol-3-yl]pyrazolo[1,5-a]pyridin-2-yl]cyclopropanecarboxamide] | 53 |
